Test results from patent US20240217989A1, “Heteroaryl Fluoroalkenes As DGK Inhibitors” (Incyte Corporation, priority 2022, published 2024).

What was measured:
DGKα = molecular target: T1, DGKα (Homo sapiens, UniProt P23743); assay: In vitro DGKα inhibition assay (ADP-Glo); assay type: biochemical; settings: His-tagged human recombinant enzyme; 0.1 nM DGKα, 50 μM ATP, 20 μM DLG; 90 minute incubation; ADP-Glo luminescence
T1 construct: His; purchased Signal Chem D21-10BH
Procedure: (§1) The DGKα and DGKζ biochemical reactions were performed using His-tagged human recombinant enzymes (Signal Chem, DGKα, #D21-10BH; DGKζ, #D30-10H)) and DLG (Dilauroyl-sn-glycerol) lipid substrate (Signal Chem, #D430-59). ADP-Glo assay was performed using ADP-Glo™ kinase Assay kit (Promega, #V9104). The reactions were carried out in assay buffer containing 40 mM Tris, pH 7.5, 0.1% CHAPS, 0.1% Prionex, 40 mM NaCl, 5 mM MgCl2, 1 mM CaCl2, and 1 mM DTT. DGKα reactions contained 0.1 nM DGKα, 50 μM ATP, and 20 μM DLG. And DGKζ reactions contained 0.4 nM DGKζ, 30 μM ATP, and 20 μM DLG. For compound inhibition studies, 40 nL test compound in DMSO was added to wells of white polystyrene plates in 384-well (Greiner, #784075) or 1536-well format (Greiner, #782075). Compounds were added with top concentration of 2 mM with 11 point, 3-fold dilution series. Enzyme solution (contains 2× DGK enzyme concentration in 1× assay buffer) was added to the plate in 2 μL/well volume, followed by 2 μL/well of substrate solution (contains 2× concentration of ATP and DLG substrate in 1× assay buffer). Plates were then centrifuged for 1 min at 1200 RPM and sealed or lidded. For 4 μL reaction volume, test compounds were therefore diluted 100× to final top concentration of 20 μM. After 90 minute incubation, reactions were quenched by addition of 2 μL/well Promega ADP-Glo Reagent, followed by centrifugation and lidding. After 60 min incubation, 2 μL/well Promega Kinase Detection Reagent was added, plates centrifuged, and incubated for 30 min. Plates were then read using Luminescence method on BMG PHERAstar FSX plate reader. Percent inhibition was calculated and IC50s were determined using 4-parameter fit in Genedata Screener. Labcyte Echo acoustic dispenser was used for compound addition, and Formulatrix Tempest liquid handler was used for all reagent dispenses.

DGKζ = DGKζ (Homo sapiens, UniProt Q13574); assay: In vitro DGKζ inhibition assay (ADP-Glo); assay type: biochemical; settings: His-tagged human recombinant enzyme; 0.4 nM DGKζ, 30 μM ATP, 20 μM DLG; 90 minute incubation; ADP-Glo luminescence
Sequence of DGKζ (Q13574 whole entry): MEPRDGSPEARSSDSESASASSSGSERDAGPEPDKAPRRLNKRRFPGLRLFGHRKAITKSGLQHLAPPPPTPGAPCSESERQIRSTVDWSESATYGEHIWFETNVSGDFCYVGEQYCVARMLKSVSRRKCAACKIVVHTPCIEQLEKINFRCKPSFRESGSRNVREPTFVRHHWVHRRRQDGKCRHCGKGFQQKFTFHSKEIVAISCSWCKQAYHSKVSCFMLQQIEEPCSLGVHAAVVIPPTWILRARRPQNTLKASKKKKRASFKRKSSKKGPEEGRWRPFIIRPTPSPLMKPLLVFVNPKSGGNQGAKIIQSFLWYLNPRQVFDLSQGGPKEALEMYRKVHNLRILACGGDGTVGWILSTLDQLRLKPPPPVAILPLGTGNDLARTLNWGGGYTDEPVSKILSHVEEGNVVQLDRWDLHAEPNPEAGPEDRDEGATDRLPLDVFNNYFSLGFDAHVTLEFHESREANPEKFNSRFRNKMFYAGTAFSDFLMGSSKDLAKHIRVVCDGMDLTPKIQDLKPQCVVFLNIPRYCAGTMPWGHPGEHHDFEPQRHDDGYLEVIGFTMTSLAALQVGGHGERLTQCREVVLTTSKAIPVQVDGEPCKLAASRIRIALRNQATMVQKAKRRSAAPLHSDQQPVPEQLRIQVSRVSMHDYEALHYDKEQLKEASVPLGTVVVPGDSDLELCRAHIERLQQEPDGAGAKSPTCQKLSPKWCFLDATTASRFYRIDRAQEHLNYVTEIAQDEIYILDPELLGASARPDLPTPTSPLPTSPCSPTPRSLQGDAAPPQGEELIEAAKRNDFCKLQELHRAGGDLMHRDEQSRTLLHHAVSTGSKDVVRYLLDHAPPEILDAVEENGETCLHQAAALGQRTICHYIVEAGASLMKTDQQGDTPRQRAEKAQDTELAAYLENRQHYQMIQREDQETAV
Procedure: as §1

T1 sequence (P23743 whole entry): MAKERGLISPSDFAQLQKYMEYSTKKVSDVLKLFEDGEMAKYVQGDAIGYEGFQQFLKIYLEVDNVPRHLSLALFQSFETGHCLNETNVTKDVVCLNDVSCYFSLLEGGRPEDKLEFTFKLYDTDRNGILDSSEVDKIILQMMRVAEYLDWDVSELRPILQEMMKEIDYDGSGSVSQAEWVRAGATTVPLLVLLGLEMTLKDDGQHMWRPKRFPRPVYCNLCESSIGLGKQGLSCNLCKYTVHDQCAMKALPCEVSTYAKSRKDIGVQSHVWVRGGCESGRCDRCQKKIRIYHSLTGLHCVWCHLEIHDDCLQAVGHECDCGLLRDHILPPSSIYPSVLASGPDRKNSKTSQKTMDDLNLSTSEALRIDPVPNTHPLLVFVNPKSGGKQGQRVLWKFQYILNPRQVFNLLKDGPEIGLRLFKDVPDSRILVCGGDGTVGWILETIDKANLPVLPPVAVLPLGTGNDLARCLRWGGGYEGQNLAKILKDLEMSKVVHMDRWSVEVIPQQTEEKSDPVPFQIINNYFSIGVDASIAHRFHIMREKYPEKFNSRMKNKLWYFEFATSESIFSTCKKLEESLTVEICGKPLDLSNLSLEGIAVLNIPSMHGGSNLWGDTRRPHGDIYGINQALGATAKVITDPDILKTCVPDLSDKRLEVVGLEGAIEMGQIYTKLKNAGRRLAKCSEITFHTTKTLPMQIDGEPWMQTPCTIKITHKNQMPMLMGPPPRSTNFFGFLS

Structure (SMILES)	IC50 (DGKα) [µM]	IC50 (DGKζ) [µM]
F/C(=C\c1ccc(Oc2ccccc2)c(C(F)(F)F)c1N1CCOC2(CCN(CC3CC3)CC2)C1)c1cncc(-c2ccnnc2)n1 [Example 10, (Z)-9-(Cyclopropylmethyl)-4-(6-(2-fluoro-2-(6-(pyridazin-4-yl)pyrazin-2-yl)vinyl)-3-phenoxy-2-(trifluoromethyl)phenyl)-1-oxa-4,9-diazaspiro[5.5]undecane]	≤ 0.02	≤ 0.02
COCCN1CCC2(CC1)CN(c1c(/C=C(\F)c3cncc(-c4ccnnc4)n3)ccc(Oc3ccccc3)c1C(F)(F)F)CCO2 [Example 11, (Z)-4-(6-(2-Fluoro-2-(6-(pyridazin-4-yl)pyrazin-2-yl)vinyl)-3-phenoxy-2-(trifluoromethyl)phenyl)-9-(2-methoxyethyl)-1-oxa-4,9-diazaspiro[5.5]undecane]	0.02 to 0.2	≤ 0.02
NC[C@H]1CCCN1c1c(/C=C(\F)c2nccc(-c3ccnnc3)n2)ccc(Oc2ccccc2)c1Cl [Example 13, (R,Z)-(1-(2-Chloro-6-(2-fluoro-2-(4-(pyridazin-4-yl)pyrimidin-2-yl)vinyl)-3-phenoxyphenyl)pyrrolidin-2-yl)methanamine]	≤ 0.02	≤ 0.02
CCN1CCC2(CC1)CN(c1c(/C=C(\F)c3cncc(-c4ccnnc4)n3)ccc(OC3CC3)c1C(F)(F)F)CCO2 [Example 14, (Z)-4-(3-Cyclopropoxy-6-(2-fluoro-2-(6-(pyridazin-4-yl)pyrazin-2-yl)vinyl)-2-(trifluoromethyl)phenyl)-9-ethyl-1-oxa-4,9-diazaspiro[5.5]undecane]	0.02 to 0.2	0.02 to 0.2
F/C(=C\c1ccc(Oc2ccccc2)c(C(F)(F)F)c1N1CCCC2(CCN(CC3CC3)CC2)C1)c1cncc(N2CC(F)(F)C2)n1 [Example 15, (Z)-9-(Cyclopropylmethyl)-2-(6-(2-(6-(3,3-difluoroazetidin-1-yl)pyrazin-2-yl)-2-fluorovinyl)-3-phenoxy-2-(trifluoromethyl)phenyl)-2,9-diazaspiro[5.5]undecane]	≤ 0.02	≤ 0.02
CCN1CCC2(CCCN(c3c(/C=C(\F)c4cncc(N5CC(F)(F)C5)n4)ccc(Oc4ccccc4)c3C(F)(F)F)C2)CC1 [Example 16, (Z)-2-(6-(2-(6-(3,3-Difluoroazetidin-1-yl)pyrazin-2-yl)-2-fluorovinyl)-3-phenoxy-2-(trifluoromethyl)phenyl)-9-ethyl-2,9-diazaspiro[5.5]undecane]	0.02 to 0.2	≤ 0.02
[2H]c1c([2H])c([2H])c(Oc2ccc(/C=C(\F)c3cncc(N4CC(F)(F)C4)n3)c(N3CCCC4(CCN(CC5CC5)CC4)C3)c2C(F)(F)F)c([2H])c1[2H] [Example 17, (Z)-9-(Cyclopropylmethyl)-2-(6-(2-(6-(3,3-difluoroazetidin-1-yl)pyrazin-2-yl)-2-fluorovinyl)-3-(phenoxy-d5)-2-(trifluoromethyl)phenyl)-2,9-diazaspiro[5.5]undecane]	≤ 0.02	≤ 0.02
[2H]c1c([2H])c([2H])c(Oc2ccc(/C=C(\F)c3cncc(N4CC(F)(F)C4)n3)c(N3CCCC4(CCN(CC)CC4)C3)c2C(F)(F)F)c([2H])c1[2H] [Example 18, (Z)-2-(6-(2-(6-(3,3-Difluoroazetidin-1-yl)pyrazin-2-yl)-2-fluorovinyl)-3-(phenoxy-d5)-2-(trifluoromethyl)phenyl)-9-ethyl-2,9-diazaspiro[5.5]undecane]	≤ 0.02	≤ 0.02
F/C(=C\c1ccc(Oc2ccccc2)c(C(F)(F)F)c1N1CCCC2(CCN(CC3CC3)CC2)C1)c1cncc(N2CCC(F)(F)C2)n1 [Example 19, (Z)-9-(Cyclopropylmethyl)-2-(6-(2-(6-(3,3-difluoropyrrolidin-1-yl)pyrazin-2-yl)-2-fluorovinyl)-3-phenoxy-2-(trifluoromethyl)phenyl)-2,9-diazaspiro[5.5]undecane]	≤ 0.02	≤ 0.02
CCN1CCC2(CCCN(c3c(/C=C(\F)c4cncc(N5CCC(F)(F)C5)n4)ccc(Oc4ccccc4)c3C(F)(F)F)C2)CC1 [Example 20, (Z)-2-(6-(2-(6-(3,3-Difluoropyrrolidin-1-yl)pyrazin-2-yl)-2-fluorovinyl)-3-phenoxy-2-(trifluoromethyl)phenyl)-9-ethyl-2,9-diazaspiro[5.5]undecane]	≤ 0.02	≤ 0.02
[2H]c1c([2H])c([2H])c(Oc2ccc(/C=C(\F)c3cncc(N4CCC(F)(F)C4)n3)c(N3CCCC4(CCN(CC5CC5)CC4)C3)c2C(F)(F)F)c([2H])c1[2H] [Example 21, (Z)-9-(Cyclopropylmethyl)-2-(6-(2-(6-(3,3-difluoropyrrolidin-1-yl)pyrazin-2-yl)-2-fluorovinyl)-3-(phenoxy-ds)-2-(trifluoromethyl)phenyl)-2,9-diazaspiro[5.5]undecane]	≤ 0.02	≤ 0.02
[2H]c1c([2H])c([2H])c(Oc2ccc(/C=C(\F)c3cncc(N4CCC(F)(F)C4)n3)c(N3CCCC4(CCN(CC)CC4)C3)c2C(F)(F)F)c([2H])c1[2H] [Example 22, (Z)-2-(6-(2-(6-(3,3-Difluoropyrrolidin-1-yl)pyrazin-2-yl)-2-fluorovinyl)-3-(phenoxy-d5)-2-(trifluoromethyl)phenyl)-9-ethyl-2,9-diazaspiro[5.5]undecane]	≤ 0.02	≤ 0.02
F/C(=C\c1ccc(Oc2ccccc2)c(C(F)(F)F)c1N1CCOC2(CCN(CC3CC3)CC2)C1)c1nccc(-c2ccnnc2)n1 [Example 23, (Z)-9-(Cyclopropylmethyl)-4-(6-(2-fluoro-2-(4-(pyridazin-4-yl)pyrimidin-2-yl)vinyl)-3-phenoxy-2-(trifluoromethyl)phenyl)-1-oxa-4,9-diazaspiro[5.5]undecane]	0.02 to 0.2	≤ 0.02
CCN1CCC2(CC1)CN(c1c(/C=C(\F)c3nccc(-c4ccnnc4)n3)ccc(Oc3ccccc3)c1C(F)(F)F)CCO2 [Example 24, (Z)-9-Ethyl-4-(6-(2-fluoro-2-(4-(pyridazin-4-yl)pyrimidin-2-yl)vinyl)-3-phenoxy-2-(trifluoromethyl)phenyl)-1-oxa-4,9-diazaspiro[5.5]undecane]	≤ 0.02	≤ 0.02
COCCN1CCC2(CC1)CN(c1c(/C=C(\F)c3nccc(-c4ccnnc4)n3)ccc(Oc3ccccc3)c1C(F)(F)F)CCO2 [Example 25, (Z)-4-(6-(2-Fluoro-2-(4-(pyridazin-4-yl)pyrimidin-2-yl)vinyl)-3-phenoxy-2-(trifluoromethyl)phenyl)-9-(2-methoxyethyl)-1-oxa-4,9-diazaspiro[5.5]undecane]	≤ 0.02	≤ 0.02
COCCN1CCC2(CC1)CN(c1c(/C=C(\F)c3cccc(-c4ccnnc4)n3)ccc(Oc3ccccc3)c1C(F)(F)F)CCO2 [Example 26, (Z)-4-(6-(2-Fluoro-2-(6-(pyridazin-4-yl)pyridin-2-yl)vinyl)-3-phenoxy-2-(trifluoromethyl)phenyl)-9-(2-methoxyethyl)-1-oxa-4,9-diazaspiro[5.5]undecane]	≤ 0.02	≤ 0.02
F/C(=C\c1ccc(Oc2ccccc2)c(C(F)(F)F)c1N1CCOC2(CCN(CC3CC3)CC2)C1)c1cccc(-c2ccnnc2)n1 [Example 27, (Z)-9-(Cyclopropylmethyl)-4-(6-(2-fluoro-2-(6-(pyridazin-4-yl)pyridin-2-yl)vinyl)-3-phenoxy-2-(trifluoromethyl)phenyl)-1-oxa-4,9-diazaspiro[5.5]undecane]	≤ 0.02	≤ 0.02
F/C(=C\c1ccc(Oc2ccccc2)c(C(F)(F)F)c1N1CCCC2(CCN(CC3CC3)CC2)C1)c1nccc(-c2ccnnc2)n1 [Example 28, (Z)-9-(Cyclopropylmethyl)-2-(6-(2-fluoro-2-(4-(pyridazin-4-yl)pyrimidin-2-yl)vinyl)-3-phenoxy-2-(trifluoromethyl)phenyl)-2,9-diazaspiro[5.5]undecane]	≤ 0.02	≤ 0.02
F/C(=C\c1ccc(Oc2ccccc2)c(C(F)(F)F)c1N1CCCC2(CCN(CC3CC3)CC2)C1)c1cncc(-c2ccnnc2)n1 [Example 29, (Z)-9-(Cyclopropylmethyl)-2-(6-(2-fluoro-2-(6-(pyridazin-4-yl)pyrazin-2-yl)vinyl)-3-phenoxy-2-(trifluoromethyl)phenyl)-2,9-diazaspiro[5.5]undecane]	≤ 0.02	≤ 0.02
F/C(=C\c1ccc(Oc2ccccc2)c(C(F)(F)F)c1N1CCCC2(CCN(C3CCC3)CC2)C1)c1nccc(-c2ccnnc2)n1 [Example 30, (Z)-9-Cyclobutyl-2-(6-(2-fluoro-2-(4-(pyridazin-4-yl)pyrimidin-2-yl)vinyl)-3-phenoxy-2-(trifluoromethyl)phenyl)-2,9-diazaspiro[5.5]undecane]	≤ 0.02	≤ 0.02
